Measured values reported in patent publication US20190030053A1, “COMPOSITION FOR INCREASING EXPRESSION OF PGC-1alpha” (BENEBIOSIS CO., LTD., priority 2016, published 2019).
“Also recorded” adds a separate entry of the source.

Tests used:
[1] = tested on: PGC-1α and related genes; experiment: Gene expression in muscle cell test (C2C12); assay type: cell-based; details: C2C12 immature muscle cells, 24 hours
Description: C2C12 immature muscle cells were prepared from the purchase from American Tissue Culture Collection (ATCC, USA). The cells were cultured in Dulbecco's modified Eagle's medium (DMEM, Gibco, USA) supplemented with 10% fetal bovine serum (FBS, USA) in a 5% CO2 incubator at 37° C. until the cells grew to confluency of 70%, while the medium was exchanged every two days. The differentiation into muscle cells was induced by culturing in a medium containing 2% horse serum (HS, Gibco, USA). The muscle cells cultured in the medium containing 2% HS for 4 days were treated with SL with various concentrations. The negative control group was treated with physiological saline with 1/1000 of the volume of the medium. The cells treated with each sample were incubated at 37° C. for 24 hours, and then washed twice with cool saline solution, and RNA was extracted using TRIzol agent (Invitrogen). cDNA was synthesized by using 1 μg/μl of RNA, which has been extracted as above and quantified, and a reverse transcription system (Promega, USA).
The expression patterns of PGC-1α and related genes were measured by using pre-designed primers and probes (Applied Biosystems; PGC-1α, Mm00447181_m1, GAPDH, and Mm99999915_q1) for the synthesized cDNA and analysis targets (Fndc5, PGC-1α, Erra, UCP1, SOD2, and GPX1). […]

[2] = tested on: PGC-1α and related genes; experiment: Gene expression by body parts in aging stimulation models; assay type: in vivo, mouse; details: SAM P1/Sku Slc mice, oral 0.1 mg/kg/day, 12 weeks, organs and skeletal muscles
Description: In order to investigate the gene expression changes by body parts by the treatment with SL (3′-SL & 6′-SL) compositions in aging stimulation models, 4-week-old male aging stimulation model mice (SAM P1/Sku Slc) were purchased from Central Lab Animal (Korea). Water was freely accessible, and a commercially available pellet feed (Dooyeul Biotech, Korea) was given for one week. […]
Sialyllactose or DW was orally administered daily. […] The dietary intake and body weight change were measured every 5 days. […]
The gene expression changes by administration of the SL (3′-SL & 6′-SL) compositions were quantitatively compared for eight main organs (heart, hippocampus, brain, spinal cord, lung, liver, spleen, and kidney), three skeletal muscles (soleus muscle, quadriceps femoris muscle, and gastrocnemius muscle), and the like. RNA was extracted by TRIzol agent (Invitrogen). cDNA was synthesized by using RNA, which has been extracted as above and quantified, and a reverse transcription system (Promega, USA). The expression patterns of PGC-1α and related genes were measured by using pre-designed primers and probes (Applied Biosystems; PGC-1α, Mm00447181_m1, GAPDH, and Mm99999915_q1) for the synthesized cDNA and analysis targets (Fndc5, PGC-1α, Erra, UCP1, SOD2, and GPX1). […]

[3] = tested on: high-fat diet mice; experiment: Subcutaneous fat changes of high-fat diet mice by subcutaneous injection; assay type: in vivo, mouse; details: 0.5 ml of 100 mM, subcutaneous injection day 0 and day 4; observed day 4 and 7
Description: 4-Week-old C56BL/6 mice were purchased from Dooyeul Biotech (Korea). Water was freely accessible, and a commercially available pellet feed (Dooyeul Biotech, Korea) was given for one week. A high-fact (60% fat) diet purchased from Research Diets (New Brunswick, U.S.A) was supplied for 28 days to construct fat-accumulated mice.
0.5 ml of 100 mM 3′-siallylactose or 6′-siallylactose dissolved in a phosphate buffer was subcutaneously injected two times (day 0 and day 4) into four to five sites of the dorsal region of the mouse having fat accumulation induced by a high-fat diet. On day 4 and 7, the skin was observed by the naked eye and dermoscopy. A phosphate buffer was used as a control group (CTL).

## CC(=O)N[C@H]1[C@H]([C@H](O)[C@H](O)CO)O[C@@](O[C@H]2[C@@H](O)[C@@H](CO)O[C@@H](O[C@H]3[C@H](O)[C@@H](O)C(O)O[C@@H]3CO)[C@@H]2O)(C(=O)O)C[C@@H]1O (stereo partly drawn) [3′-SL, α-NeuNAc-(2→3)-β-D-Gal-(1→4)-D-Glc]
[1]
  expression levels of analysis targets (Fndc5, PGC-1α, Erra, UCP1, BDNF, SOD2, GPX1) vs negative control: significant increases; also recorded: lower than that of 6′-SL
[2]; 0.1 mg/kg/day
  expression levels of analysis targets (Fndc5, PGC-1α, Erra, UCP1, SOD2, GPX1) vs control group: significant increases; also recorded: relatively low compared with 6′-SL

## CC(=O)N[C@H]1[C@H]([C@H](O)[C@H](O)CO)O[C@@](OC[C@H]2O[C@@H](O[C@H]3[C@H](O)[C@@H](O)[C@H](O)O[C@@H]3CO)[C@H](O)[C@@H](O)[C@H]2O)(C(=O)O)C[C@@H]1O [6′-SL, α-NeuNAc-(2→6)-β-D-Gal-(1→4)-D-Glc]
[3]
  subcutaneous fat (naked eye and dermoscopy): greatly reduced subcutaneous fat
[1]
  expression levels of analysis targets (Fndc5, PGC-1α, Erra, UCP1, BDNF, SOD2, GPX1) vs negative control: significant increases
[2]
  expression levels of analysis targets (Fndc5, PGC-1α, Erra, UCP1, SOD2, GPX1) vs control group: significant increases
